Source: ChEMBL document CHEMBL4219122, “Synthesis and biological evaluation of histone deacetylase and DNA topoisomerase II-Targeted inhibitors” (Bioorg Med Chem, 2018)

What was measured:
[1] = Growth inhibition of human HBC5 cells after 48 hrs by sulforhodamine B-based colorimetric assay; assay type: functional; conditions: HBC5, 48 h
OVCAR-4 = assay: Growth inhibition of human OVCAR4 cells after 48 hrs by sulforhodamine B-based colorimetric assay; assay type: functional; conditions: OVCAR-4, 48 h
[2] = Growth inhibition of human BSY1 cells after 48 hrs by sulforhodamine B-based colorimetric assay; assay type: functional; conditions: BSY-1, 48 h
MKN-1 = assay: Growth inhibition of human MKN1 cells after 48 hrs by sulforhodamine B-based colorimetric assay; assay type: functional; conditions: MKN-1, 48 h
MKN-74 = assay: Growth inhibition of human MKN74 cells after 48 hrs by sulforhodamine B-based colorimetric assay; assay type: functional; conditions: MKN-74, 48 h
LOX IMVI = assay: Growth inhibition of human LOXIMVI cells after 48 hrs by sulforhodamine B-based colorimetric assay; assay type: functional
PC-3 = assay: Growth inhibition of human PC3 cells after 48 hrs by sulforhodamine B-based colorimetric assay; assay type: functional; conditions: PC-3, 48 h
NCI-H23 = assay: Growth inhibition of human NCI-H23 cells after 48 hrs by sulforhodamine B-based colorimetric assay; assay type: functional; conditions: NCI-H23, 48 h
HCT-116 = assay: Growth inhibition of human HCT116 cells after 48 hrs by sulforhodamine B-based colorimetric assay; assay type: functional, cell-based; conditions: HCT-116, 48 h
St-4 = assay: Growth inhibition of human St-4 cells after 48 hrs by sulforhodamine B-based colorimetric assay; assay type: functional; conditions: St-4, 48 h
SF-268 = assay: Growth inhibition of human SF268 cells after 48 hrs by sulforhodamine B-based colorimetric assay; assay type: functional; conditions: SF-268, 48 h
A549 = assay: Growth inhibition of human A549 cells after 48 hrs by sulforhodamine B-based colorimetric assay; assay type: functional; conditions: A549, 48 h
MDA-MB-231 = assay: Growth inhibition of human MDA-MB-231 cells after 48 hrs by sulforhodamine B-based colorimetric assay; assay type: functional; conditions: MDA-MB-231, 48 h
SNB-75 = assay: Growth inhibition of human SNB75 cells after 48 hrs by sulforhodamine B-based colorimetric assay; assay type: functional; conditions: SNB-75, 48 h
NCI-H522 = assay: Growth inhibition of human NCI-H522 cells after 48 hrs by sulforhodamine B-based colorimetric assay; assay type: functional; conditions: NCI-H522, 48 h
SK-OV-3 = assay: Growth inhibition of human SKOV3 cells after 48 hrs by sulforhodamine B-based colorimetric assay; assay type: functional; conditions: SK-OV-3, 48 h
[3] = Selectivity index, ratio of IC50 for human placenta topoisomerase 2alpha to IC50 for mouse HDAC6 expressed in HEK293T cells co-expressing mouse HDA2; assay type: cell-based

GI50 (OVCAR-4) [µM]	GI50 (MKN-1) [µM]	GI50 (MKN-74) [µM]	GI50 (PC-3) [µM]	GI50 (NCI-H23) [µM]	GI50 (HCT-116; read-out: GI50) [µM]	GI50 (HCT-116; read-out: pGI50 (converted)) [µM]	GI50 (A549) [µM]	GI50 (MDA-MB-231) [µM]	GI50 (NCI-H522) [µM]	GI50 (SK-OV-3) [µM]	SMILES	GI50 [1] [µM]	GI50 [2] [µM]	GI50 (LOX IMVI) [µM]	GI50 (St-4) [µM]	GI50 (SF-268) [µM]	GI50 (SNB-75) [µM]	Ratio IC50 [3]
3.24	2.95	4.47	4.37	4.68	3.39	3.39	5.01	2.51	2.69	4.07	Cc1cn([C@H]2C[C@H](C3(c4ccc(NC(=O)CCCCCCC(=O)NO)cc4)SCCCS3)[C@@H](CO[Si](C)(C)C(C)(C)C)O2)c(=O)[nH]c1=O	6.46	2.63	1.78	4.07	4.37	5.37	–
3.98	4.47	5.75	4.57	7.94	4.17	4.17	8.51	3.09	2.69	12.9	Cc1cn([C@@H]2C[C@H](C3(c4ccc(NC(=O)CCCCCCC(=O)NO)cc4)SCCCS3)[C@@H](CO[Si](C)(C)C(C)(C)C)O2)c(=O)[nH]c1=O	6.31	2.63	2.14	8.71	6.03	5.5	20
